Experimental data reported in paper PMC2873993, “Comparative Therapeutic Effects of Velaglucerase Alfa and Imiglucerase in a Gaucher Disease Mouse Model” (PLoS ONE, 2010).
Changes are numbered by the printed parent chain.

Legend:
Vela = molecular target: T1, Vela (Homo sapiens, UniProt P04062); assay: Inhibition of Vela by active site-directed GCase inhibitors (4MU-Glc substrate); assay type: biochemical; details: 8 pmol enzyme protein; SE ≤20%
T1 construct: purchased HGT/Shire, Cambridge, MA Lot#FEC06-002
T1 sequence (P04062 40-536): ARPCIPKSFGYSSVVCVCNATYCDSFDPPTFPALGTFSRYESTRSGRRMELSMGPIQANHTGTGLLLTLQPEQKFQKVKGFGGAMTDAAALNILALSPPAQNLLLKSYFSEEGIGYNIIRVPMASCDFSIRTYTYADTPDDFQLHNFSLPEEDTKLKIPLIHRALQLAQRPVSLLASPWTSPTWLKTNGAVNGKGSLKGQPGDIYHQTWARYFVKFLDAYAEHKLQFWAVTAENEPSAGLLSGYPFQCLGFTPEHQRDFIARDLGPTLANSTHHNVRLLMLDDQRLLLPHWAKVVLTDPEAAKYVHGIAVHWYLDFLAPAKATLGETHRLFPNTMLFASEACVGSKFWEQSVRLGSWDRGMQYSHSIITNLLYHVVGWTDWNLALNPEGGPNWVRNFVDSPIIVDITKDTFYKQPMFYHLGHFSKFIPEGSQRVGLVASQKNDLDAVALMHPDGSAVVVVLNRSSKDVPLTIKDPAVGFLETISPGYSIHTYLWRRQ

Imig = molecular target: T2, Imig (Homo sapiens, UniProt P04062, R534H); assay: Inhibition of Imig by active site-directed GCase inhibitors (4MU-Glc substrate); assay type: biochemical; details: 8 pmol enzyme protein; SE ≤20%
T2 construct: purchased Genzyme, Cambridge, MA Lot#A7021H04; host or cells: CHO cells
T2 sequence (P04062 40-536 R534H): T1 sequence (P04062 40-536) with R495H

9 V/null mouse = test system: 9 V/null mouse; design: method as in PMID 17509920; details: cited from earlier work
patients = details: Gaucher disease patients; cited from earlier work

## O[C@H]1[C@H](O)[C@@H](O)[C@@H]2O[C@@H]2[C@@H]1O (racemic) [Conduritol B epoxide]
Vela
  IC50: 99.8 µM
Imig
  IC50: 146 µM

## CCCCCCCC(=O)N[C@H](CN1CCCC1)[C@H](O)c1ccc2c(c1)OCCO2 [Genz 112638]
9 V/null mouse
  effect on alveolar Gaucher cells: clearance of the alveolar Gaucher cells

B1: alglucerase (protein, UniProt P04062 40-536, looked up)
Lysosomal acid …: T1 sequence (P04062 40-536)
modifications: mannosyl-terminated glycans
patients
  patients who developed an IgG antibody response: 13–15%
